The results in this text go back to US10815222B2, “Compounds for use in the treatment of kinetoplastid infection” (C.N.C.C.S. S.c.a.r.l. COLLEZIONE NAZIONALE DEI COMPOSTI …, priority 2016, dated 2020).

The assay has as its system Bloodstream form of Trypanosoma brucei, strain Lister 427. The assay is described as follows: Trypanosoma brucei growth inhibition assay (CellTiter-Glo, 24 h). Format: cell-based. As to conditions: Trypanosoma brucei; T. Brucei Growth Inibition Assay, class symbols; read-out: T. Brucei GI EC50. Put shortly: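 Growth read-out was CellTiter-Glo luminescence after 24 h at 37 °C incubation of 1500 bloodstream-form Lister 427 trypanosomes per well with compound, in supplemented IMDM containing 10% FBS and at most 0.25% DMSO.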
(Cellular ATP, detected with luciferase, serves as a proxy for viable cell number.)
A word on the EC50: it is the concentration giving half of the maximal effect. For `COc1nc2ccccc2cc1-c1cnc([C@@H]2CN(CC3CCOC3)CCN2C(=O)Cn2c(C3CCC3)nc3ccccc32)[nH]1` (stereo partly drawn), the EC50 was 100 to 500 nM. To `COc1nc2ccccc2cc1-c1cnc([C@@H]2CN(C3CCS(=O)(=O)CC3)CCN2C(=O)Cn2c(C(F)(F)F)nc3ccccc32)[nH]1` [(S)-1-(4-(1,1-dioxidotetrahydro-2H-thiopyran-4-yl)-2-(5-(2-methoxyquinolin-3-yl)-1H-imidazol-2-yl)piperazin-1-yl)-2-(2-(trifluoromethyl)-1H-benzo[d]imidazol-1-yl)ethan-1-one] belongs less than 100 nM; to `COc1ccc2nc(C(F)(F)F)n(CC(=O)N3CC[C@H](NCc4ccon4)C[C@H]3c3ncc(-c4cc5ccccc5nc4OC)[nH]3)c2c1` [1-((2S,4S)-4-((isoxazol-3-ylmethyl)amino)-2-(5-(2-methoxyquinolin-3-yl)-1H-imidazol-2-yl)piperidin-1-yl)-2-(6-methoxy-2-(trifluoromethyl)-1H-benzo[d]imidazol-1-yl)ethan-1-one], less than 100 nM. The same measure for `COc1ccc2nc(C(F)(F)F)n(CC(=O)N3CCN(C4CCCC4)CCC3c3ncc(-c4cc5ccccc5nc4OC)[nH]3)c2c1` (stereo not drawn): 100 to 500 nM. To `CN1CCN(C(=O)Cc2noc3ccccc23)C(c2ncc(-c3ccc4ccccc4c3)[nH]2)C1` (stereo not drawn) belongs 1010 to 5000 nM; to `O=C(Cc1n[nH]c2ccccc12)N1CCN(CCc2ccccc2)CC1c1ncc(-c2ccc3ccccc3c2)[nH]1` (stereo not drawn), 1010 to 5000 nM. On to `COc1nc2ccccc2cc1-c1cnc([C@@H]2CN(C3CCOCC3)CCN2C(=O)Cn2c(C(F)(F)F)nc3ccccc32)[nH]1` [(S)-1-(2-(5-(2-methoxyquinolin-3-yl)-1H-imidazol-2-yl)-4-(tetrahydro-2H-pyran-4-yl)piperazin-1-yl)-2-(2-(trifluoromethyl)-1H-benzo[d]imidazol-1-yl)ethan-1-one], for which the EC50 was less than 100 nM.

With `COc1nc2ccccc2cc1-c1cnc([C@@H]2CN(CC3CCOC3)CCN2C(=O)Cn2c(S(C)(=O)=O)nc3ccccc32)[nH]1` (stereo partly drawn), the concentration giving a half-maximal response (EC50) was in the range of 100 to 500 nM. To `COc1nc2ccccc2cc1-c1cnc(C2CN(CC3CC3)CCN2C(=O)Cc2c(C)[nH]c3ccc(F)cc23)[nH]1` (stereo not drawn) belongs 100 to 500 nM; to `COc1ccc2nc(C)n(CC(=O)N3CCN(C[C@@H]4CCOC4)CC3c3ncc(-c4ccc(-c5ccccc5)nc4OC)[nH]3)c2c1` (stereo partly drawn), 1010 to 5000 nM; to `COc1nc2ccccc2cc1-c1cnc([C@@H]2CN(Cc3cncc(F)c3)CCN2C(=O)Cn2c(C(F)(F)F)nc3ccccc32)[nH]1` [(S)-1-(4-((5-fluoropyridin-3-yl)methyl)-2-(5-(2-methoxyquinolin-3-yl)-1H-imidazol-2-yl)piperazin-1-yl)-2-(2-(trifluoromethyl)-1H-benzo[d]imidazol-1-yl)ethan-1-one], less than 100 nM. For `COC(=O)CCCN1CCN(C(=O)Cc2c(C)[nH]c3ccc(OC)cc23)C(c2ncc(-c3ccc4ccccc4c3)[nH]2)C1` (stereo not drawn), the EC50 lay within 100 to 500 nM.

In the case of `COc1ccc2nc(C(F)(F)F)n(CC(=O)N3CCS(=O)(=O)CC3c3ncc(-c4cc5ccccc5nc4OC)[nH]3)c2c1` (stereo not drawn) [2-(6-methoxy-2-(trifluoromethyl)-1H-benzo[d]imidazol-1-yl)-1-(3-(5-(2-methoxyquinolin-3-yl)-1H-imidazol-2-yl)-1,1-dioxidothiomorpholino)ethan-1-one], the EC50 was in the range of 100 to 500 nM.

Take `COc1nc2ccccc2cc1-c1cnc(C2CN(CC3CCOC3)CCN2C(=O)c2ccc3ncccc3c2)[nH]1` (stereo not drawn): the EC50 was in the range of 1010 to 5000 nM. For the molecule `COc1nc2ccccc2cc1-c1cnc([C@@H]2CN(C3CCC(F)(F)CC3)CCN2C(=O)Cn2c(C(F)(F)F)nc3ccccc32)[nH]1` [(S)-1-(4-(4,4-difluorocyclohexyl)-2-(5-(2-methoxyquinolin-3-yl)-1H-imidazol-2-yl)piperazin-1-yl)-2-(2-(trifluoromethyl)-1H-benzo[d]imidazol-1-yl)ethan-1-one], the EC50 was less than 100 nM. `COc1nc2ccccc2cc1-c1cnc(C2CN(CC(F)F)CCN2C(=O)Cc2ccccc2)[nH]1` (stereo not drawn): the EC50 fell in the range of 1010 to 5000 nM. The same measure for `CCn1cc(CN2CCC(c3ncc(-c4cc5ccccc5nc4OC)[nH]3)N(C(=O)Cn3c(C(F)(F)F)nc4ccc(OC)cc43)CC2)cn1` (stereo not drawn): 510 to 1000 nM; for `COc1nc2ccccc2cc1-c1cnc(C2CN(CC3CCOC3)CCN2C(=O)c2c(-c3ccccc3)noc2C)[nH]1` (stereo not drawn): 1010 to 5000 nM; for `CCN(C1CCOC1)[C@H]1CCN(C(=O)Cn2c(C(F)(F)F)nc3ccc(OC)cc32)[C@H](c2ncc(-c3cc4ccccc4nc3OC)[nH]2)C1` (stereo partly drawn) [1-((2S,4S)-4-(ethyl(tetrahydrofuran-3-yl)amino)-2-(5-(2-methoxyquinolin-3-yl)-1H-imidazol-2-yl)piperidin-1-yl)-2-(6-methoxy-2-(trifluoromethyl)-1H-benzo[d]imidazol-1-yl)ethan-1-one]: less than 100 nM. The same measure for `CCC(=O)CCCN1CCN(C(=O)Cc2c[nH]c3ccccc23)[C@@H](c2ncc(-c3ccc4ccccc4c3)[nH]2)C1`: 1010 to 5000 nM; for `COc1nc2ccccc2cc1-c1cnc(C2CN(CC3CCOC3)CCN2C(=O)c2ccc(C3CCCO3)s2)[nH]1` (stereo not drawn): 1010 to 5000 nM; for `CN1CCN(C(=O)Cc2cnc3ccccc3c2)C(c2ncc(-c3ccc4ccccc4c3)[nH]2)C1` (stereo not drawn): 1010 to 5000 nM. The same measure for `COc1nc2ccccc2cc1-c1cnc(C2CN(C(=O)c3cnn(C(C)C)c3)CCN2C(=O)Cc2c(C)[nH]c3ccc(F)cc23)[nH]1` (stereo not drawn): 1010 to 5000 nM. Turning to `COc1nc2ccccc2cc1-c1cnc(C2CN(Cc3cocn3)CCN2C(=O)Cc2c(C)[nH]c3ccc(F)cc23)[nH]1` (stereo not drawn), the EC50 lay in the range of 100 to 500 nM. To `COc1ccc2nc(C(F)(F)F)n(CC(=O)N3CCN(Cc4ccn(C)n4)CC[C@@H]3c3ncc(-c4cc5ccccc5nc4OC)[nH]3)c2c1` [(R)-2-(6-methoxy-2-(trifluoromethyl)-1H-benzo[d]imidazol-1-yl)-1-(7-(5-(2-methoxyquinolin-3-yl)-1H-imidazol-2-yl)-4-((1-methyl-1H-pyrazol-3-yl)methyl)-1,4-diazepan-1-yl)ethan-1-one] belongs 1010 to 5000 nM; to `COc1ccc2nc(C(F)(F)F)n(CC(=O)N3CCN(Cc4nccs4)C[C@H]3c3ncc(-c4cc5ccccc5nc4OC)[nH]3)c2c1` [(S)-2-(6-methoxy-2-(trifluoromethyl)-1H-benzo[d]imidazol-1-yl)-1-(2-(5-(2-methoxyquinolin-3-yl)-1H-imidazol-2-yl)-4-(thiazol-2-ylmethyl)piperazin-1-yl)ethan-1-one], less than 100 nM; to `COc1ccc2nc(C(F)(F)F)n(CC(=O)N3CCOCC3c3ncc(-c4cc5ccccc5nc4OC)[nH]3)c2c1` (stereo not drawn), 100 to 500 nM. To `COc1nc2ccccc2cc1-c1cnc(C2CN(CC3CCOC3)CCN2C(=O)CN2C(=O)c3ccccc3C2=O)[nH]1` (stereo not drawn) belongs 510 to 1000 nM; to `COc1nc2ccccc2cc1-c1cnc([C@@H]2CN(CC3CCOC3)CCN2C(=O)Cn2c(C(F)(F)F)nc3ccccc32)[nH]1` (stereo partly drawn) [1-((2S)-2-(5-(2-methoxyquinolin-3-yl)-1H-imidazol-2-yl)-4-((tetrahydrofuran-3-yl)methyl)piperazin-1-yl)-2-(2-(trifluoromethyl)-1H-benzo[d]imidazol-1-yl)ethan-1-one], less than 100 nM; to `COc1ccc2nc(O)cc(C(=O)N3CCN(CC4CCOC4)CC3c3ncc(-c4cc5ccccc5nc4OC)[nH]3)c2c1` (stereo not drawn), 1010 to 5000 nM.
